According to patent publication US12662494B2, “Optically active bridged piperidine derivative” (Sumitomo Pharma Co., Ltd., priority 2018, dated 2026):
Read-outs that look alike come from different tables or passages of the source.

Assays:
[1] = test system: RS4; 11 cells; assay: Test 2: inhibition of cell proliferation, RS4;11; type: cell-based; conditions: for cell proliferation inhibition activity, good (in words) / cell proliferation inhibitory activity, potent (in words): summary of Test 2 table, RS4;11 and MOLM-13; for IC50: Homo sapiens, 168 h, RS4;11 cells, 7 days, PrestoBlue cell viability
Protocol: (§1) Test 2: Test for Evaluating the Inhibition of Cell Proliferation
(§2) RS4; 11 cells were obtained from American Type Culture Collection (ATCC). The cells were cultured at 37° C. in the presence of 5% CO2 in RPMI 1640 medium containing 10% fetal bovine serum and 1% penicillin/streptomycin. MOLM-13 cells were separately obtained from DSMZ (Deutsche Sammlung von Mikroorganismen und Zellkulturen GmbH). The cells were cultured at 37° C. in the presence of 5% CO2 in RPMI 1640 medium containing […] and 1% penicillin/streptomycin.
(§3) The cells were plated to a 96-well plate in 2000 cells/well, each test compound was added thereto to adjust the final concentration of DMSO to 0.1% of DMSO, and the cells were cultured for 7 days. After the cultivation, the cell viability was calculated with PrestoBlue™ Cell Viability Reagent (Invitrogen, A13261). The IC50 value was calculated from a survival curve, that corresponds to the concentration of the test compound at which the cell proliferation inhibition rate is 50%.

[2] = mouse, in vivo, po, 100 mg/kg
Protocol: Test 4: Pharmacokinetic Study
(§6) The test compound suspended in 0.5% methylcellulose was orally administered to 7-week-old male NOD. CB17-Prkdcscid/J mouse in a dose of 100 mg/kg. The blood sample was taken from jugular vein without anesthesia over time for 24 hours. The blood sample was centrifuged to obtain plasma. The plasma was pre-treated by methanol extraction method, and then analyzed with an LC-MS/MS to determine the concentration of the test compound. Based on the data from 0 hour after the administration until the time (t) when there was the final detection in the plasma, AUC was calculated by trapezoidal method.

[3] = molecular target: T1, Menin-MLL binding (His-Menin1-615 and MLL1-172-FLAG) (Homo sapiens, UniProt O00255); assay: Test 1: inhibition of the menin-MLL binding (HTRF); conditions: for IC50: His-Menin1-615 30 nmol/L, MLL1-172-FLAG 50 nmol/L; for menin-MLL binding inhibition activity (in words): summary of Test 1 table
T1 construct: Menin1-615 wherein 6× His tag and HA tag are inserted in the N-terminus; HA (N); myc (C)
T1 sequence (O00255 1-615 isoform O00255-1): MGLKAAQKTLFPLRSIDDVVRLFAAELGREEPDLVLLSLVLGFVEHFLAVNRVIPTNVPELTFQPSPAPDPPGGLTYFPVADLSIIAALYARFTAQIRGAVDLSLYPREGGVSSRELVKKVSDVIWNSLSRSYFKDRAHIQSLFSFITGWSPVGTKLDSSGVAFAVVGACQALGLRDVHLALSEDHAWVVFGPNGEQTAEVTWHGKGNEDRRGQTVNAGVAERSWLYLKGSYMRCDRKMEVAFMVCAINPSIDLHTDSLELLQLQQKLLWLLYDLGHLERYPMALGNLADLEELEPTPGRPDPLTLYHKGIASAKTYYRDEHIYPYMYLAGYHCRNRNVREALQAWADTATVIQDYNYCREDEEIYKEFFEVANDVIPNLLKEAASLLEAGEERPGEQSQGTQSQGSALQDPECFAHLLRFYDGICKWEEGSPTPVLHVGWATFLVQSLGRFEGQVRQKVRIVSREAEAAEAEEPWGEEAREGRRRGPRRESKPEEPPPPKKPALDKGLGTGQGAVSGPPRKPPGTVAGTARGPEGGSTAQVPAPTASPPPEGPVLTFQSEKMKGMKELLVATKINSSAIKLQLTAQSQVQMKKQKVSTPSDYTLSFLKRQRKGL
Protocol: Test 1: Test for Evaluating the Inhibition of the Menin-MLL Binding
Menin1-615 wherein 6× His tag and HA tag are inserted in the N-terminus, and myc tag is inserted in the C-terminus (hereinafter, referred to as His-Menin1-615), was diluted with an assay buffer (25 mmol/L HEPES, 150 mmol/L NaCl, 1 mmol/L dithiothreitol, 0.5% (w/v) Tween 80, 0.3% (w/v) BSA, 0.3% (w/v) skim milk) to adjust the final concentration to 30 nmol/L. The test compounds were also diluted with the assay buffer to adjust each concentration of the test compounds to 0.005 to 5 μmol/L. The prepared His-Menin1-615 and test compounds were added to a light-shielding 384-well low-volume plate (Corning, #4514) in 2 μL/well and […], respectively, and the plate was covered with a lid for light-shielding (Corning, #3935), and incubated at room temperature for 3 hours. After the incubation, MLL1-172 wherein FLAG tag is inserted in the C-terminus (MLL1-172-FLAG), was separately diluted with the assay buffer to adjust the final concentration to 50 nmol/L. The prepared MLL1-172-FLAG was added to the above plate in 2 μL/well, and the plate was covered with a lid for light-shielding and incubated at room temperature for an hour.
Then, anti-6HIS-d2 antibody (cisbio, 61HISDLA) and anti-FLAGM2-K antibody (cisbio, 61FG2KLA) were diluted with an antibody dilution buffer (50 mmol/L Tris, 150 mmol/L NaCl, 800 mmol/L KF, pH 7.4) to adjust the final concentration to 1.4 μg/mL to prepare an antibody mixture. The prepared antibody mixture was added to the above plate in 10 μL/well, and the plate was covered with a lid and incubated at 4° C. for 17 to 24 hours. After the incubation, the signal was detected with RUBYstar (BMG LABTECH).

[4] = test system: MOLM-13 cells; assay: Test 2: inhibition of cell proliferation, MOLM-13; type: cell-based; conditions: Homo sapiens, 168 h, 7 days, PrestoBlue cell viability
Protocol: as §1, §2, §3

[5] = test system: MEIS1; assay: Test 3: inhibition of mRNA transcription, MEIS1 in MV4;11 cells; type: cell-based; conditions: for mRNA at 1 μM (% control) MEIS1: MV4;11 cells, 20 to 24 hours, fitted with GAPDH; for mRNA transcription inhibition activity (in words): summary of Test 3 table, MEIS1 and HOXA9, MV4;11 cells, 1 μM
Protocol: (§4) Test 3: Test for the Inhibition of mRNA Transcription with Test Compounds
(§5) MV4; 11 cells were obtained from American Type Culture Collection (ATCC). The cells were cultured at 37° C. in the presence of 5% CO2 in RPMI 1640 medium containing 10% fetal bovine serum and 1% penicillin/streptomycin. To the MV4; 11 cells was added each test compound to adjust the final concentration to 1 μmol/L, and the cells were cultured at 37° C. in the presence of 5% CO2 for 20 to 24 hours. After the incubation, the total RNA was extracted from the cells with RNeasy™ Mini Kit (QIAGEN, 74106), and CDNA was synthesized with Superscript™ VILO™ CDNA Synthesis Kit (Invitrogen, #11754250). By using TaqMan™ Gene Expression Master Mix (Applied Biosystems, 4369016) and TaqMan™ probe (Applied Biosystems), the expression level of mRNA was quantified from the obtained cDNA with 7900HT (Applied Biosystems). The mRNA expression level of each obtained gene was fitted with the expression level of mRNA of GAPDH.

[6] = test system: HOXA9; assay: Test 3: inhibition of mRNA transcription, HOXA9 in MV4;11 cells; type: cell-based; conditions: 20 to 24 hours, fitted with GAPDH
Protocol: as §4, §5

[7] = Test 4: pharmacokinetic study, oral, mouse; conditions: for AUC(0-t): male, NOD.CB17-Prkdcscid/J, plasma, po, 100 mg/kg; for compound-exposure in plasma (in words): summary of Test 4 table, oral 100 mg/kg
Protocol: Test 4: Pharmacokinetic Study
as §6

SMILES	cell proliferation inhibition activity, good (in words) [1]	cell proliferation inhibitory activity, potent (in words) [1]	AUC(0-t) [2] [ng·h/mL]	compound-exposure in plasma (in words) [2]	IC50 [3] [nM]	IC50 [1] [nM]	IC50 [4] [nM]	mRNA at 1 μM (% control) MEIS1 [5] [% control]	mRNA at 1 μM (% control) HOXA9 [6] [% control]	AUC(0-t) [7] [ng·h/mL]	compound-exposure in plasma (in words) [7]	menin-MLL binding inhibition activity (in words) [3]	mRNA transcription inhibition activity (in words) [5]
[2H]C([2H])=C1C[C@@H]2CC[C@H]1[C@@H](C(=O)N1CCC3(CC1)CN(c1c(C(F)(F)F)cnc4sc(CC(F)(F)F)cc14)C3)N2 [Example 21, [(1S,3S,4R)-5-(^2H2)methylidene-2-azabicyclo[2.2.2]octan-3-yl]{2-[2-(2,2,2-trifluoroethyl)-5-(trifluoromethyl)thieno[2,3-b]pyridin-4-yl]-2,7-diazaspiro[3.5]nonan-7-yl}methanone]	good cell proliferation inhibition activity	potent cell proliferation inhibitory activity	24300	good compound-exposure in plasma	–	–	–	–	–	–	–	–	–
N#Cc1cnc2sc(CC(F)(F)F)cc2c1N1CC2(CN(C(=O)[C@H]3N[C@H]4CC[C@@H]3[C@H](F)[C@@H]4CC3CC3)C2)C1 [Example 12, 4-{6-[(1S,3S,4S,5R,6R)-6-(cyclopropylmethyl)-5-fluoro-2-azabicyclo[2.2.2]octane-3-carbonyl]-2,6-diazaspiro[3.3]heptan-2-yl}-2-(2,2,2-trifluoroethyl)thieno[2,3-b]pyridine-5-carbonitrile]	–	–	–	–	7.3	60	90	18.4	42.6	8970	good compound-exposure in plasma	–	–
O=C([C@H]1N[C@H]2CC[C@@H]1[C@H](F)[C@@H]2CC1CC1)N1CC2(C1)CN(c1c(C(F)(F)F)cnc3sc(CC(F)(F)F)cc13)C2 [Example 11, [(1S,3S,4S,5R,6R)-6-(cyclopropylmethyl)-5-fluoro-2-azabicyclo[2.2.2]octan-3-yl]{6-[2-(2,2,2-trifluoroethyl)-5-(trifluoromethyl)thieno[2,3-b]pyridin-4-yl]-2,6-diazaspiro[3.3]heptan-2-yl}methanone]	good cell proliferation inhibition activity	potent cell proliferation inhibitory activity	–	–	18.8	80	150	20.6	45.0	6740	good compound-exposure in plasma	potent menin-MLL binding inhibition activity	mRNA transcription inhibition activity
O=C([C@H]1N[C@H]2CC[C@@H]1C[C@@H]2CC1CC1)N1CC2(C1)CN(c1c(C(F)(F)F)cnc3sc(CC(F)(F)F)cc13)C2 [Example 1, [(1S,3S,4R,6S)-6-(Cyclopropylmethyl)-2-azabicyclo[2.2.2]octan-3-yl]{6-[2-(2,2,2-trifluoroethyl)-5-(trifluoromethyl)thieno[2,3-b]pyridin-4-yl]-2,6-diazaspiro[3.3]heptan-2-yl}methanone]	good cell proliferation inhibition activity	potent cell proliferation inhibitory activity	–	–	36.5	90	280	31.8	55.0	10300	good compound-exposure in plasma	potent menin-MLL binding inhibition activity	mRNA transcription inhibition activity
[2H]C([2H])=C1C[C@@H]2CC[C@H]1[C@@H](C(=O)N1CCC3(CC1)CN(c1c(C#N)cnc4sc(CC(F)(F)F)cc14)C3)N2 [Example 24, 4-{7-[(1S,3S,4R)-5-(^2H2)methylidene-2-azabicyclo[2.2.2]octane-3-carbonyl]-2,7-diazaspiro[3.5]nonan-2-yl}-2-(2,2,2-trifluoroethyl)thieno[2,3-b]pyridine-5-carbonitrile]	good cell proliferation inhibition activity	potent cell proliferation inhibitory activity	6970	good compound-exposure in plasma	–	–	–	–	–	–	–	–	–
